According to patent US20190160131A1, “METHOD FOR CELL REJUVENATION USING ROSA ROXBURGHII FRUIT EXTRACTS” (TCI CO., LTD, priority 2017, published 2019):

Test system: human skin fibroblast CCD-966SK
Test: Chemical (etoposide)-induced telomere shortening, telomere length by qPCR
Type: cell-based
Conditions: 30 μM etoposide only, 5 days of incubation, compared to control cells (FIG. 8)
Protocol: Telomere length is determined based on qPCR technique. First, genomic DNA samples were extracted from cells. Next, the genomic DNA samples (20 ng) were subjected to qPCR to obtain melting curves. The qPCR was performed with a PCR thermocycler using KAPA CYBR FAST qPCR Kit (2×) (KAPA Biosystems) and primers of the telomere and the single-copy 36B4 gene (Table 2). In addition, serially diluted standards of the telomere (10- to 10^6-fold dilutions starting from 60 pg) and the 36B4 gene (10- to 10^6-fold dilutions starting from 200 pg) were prepared and subjected to qPCR under the following reaction conditions to obtain standard curves (Ct/kb): a denaturation phase at 95° C. for 10 minutes followed by 40 cycles of denaturation (95° C.) for 15 seconds and annealing (60° C.) for 1 minute. The telomere standard was an oligonucleotide having 14 repeats of TTAGGG (SEQ ID NO: 7); the standard of 36B4 gene had the nucleotide sequence of SEQ ID NO:8. Lastly, the average length of telomere in the genomic DNA samples was determined from the aforementioned standard curves and the cycle threshold values of telomere and 36B4 gene in the genomic DNA samples.
The protective effect of Rosa roxburghii fruit water extract on chromosomal telomere was investigated in human skin fibroblast CCD-966SK. […]

COc1cc([C@@H]2c3cc4c(cc3[C@@H](O[C@@H]3O[C@@H]5CO[C@@H](C)O[C@H]5[C@H](O)[C@H]3O)[C@H]3COC(=O)[C@H]23)OCO4)cc(OC)c1O [etoposide]
relative length of telomeres: significantly shortened
